Reference: paper PMC8637149 (Heliyon, 2021)

Legend:
ZmPEPC-C4 [1] = biological target: T1, ZmPEPC-C4 (Zea mays, UniProt Q84KR7); assay: coupled malic dehydrogenase assay, NADH oxidation at […] nm; type: biochemical; settings: read-out: % inhibition at 10 mM
T1 sequence (Q84KR7 1-970): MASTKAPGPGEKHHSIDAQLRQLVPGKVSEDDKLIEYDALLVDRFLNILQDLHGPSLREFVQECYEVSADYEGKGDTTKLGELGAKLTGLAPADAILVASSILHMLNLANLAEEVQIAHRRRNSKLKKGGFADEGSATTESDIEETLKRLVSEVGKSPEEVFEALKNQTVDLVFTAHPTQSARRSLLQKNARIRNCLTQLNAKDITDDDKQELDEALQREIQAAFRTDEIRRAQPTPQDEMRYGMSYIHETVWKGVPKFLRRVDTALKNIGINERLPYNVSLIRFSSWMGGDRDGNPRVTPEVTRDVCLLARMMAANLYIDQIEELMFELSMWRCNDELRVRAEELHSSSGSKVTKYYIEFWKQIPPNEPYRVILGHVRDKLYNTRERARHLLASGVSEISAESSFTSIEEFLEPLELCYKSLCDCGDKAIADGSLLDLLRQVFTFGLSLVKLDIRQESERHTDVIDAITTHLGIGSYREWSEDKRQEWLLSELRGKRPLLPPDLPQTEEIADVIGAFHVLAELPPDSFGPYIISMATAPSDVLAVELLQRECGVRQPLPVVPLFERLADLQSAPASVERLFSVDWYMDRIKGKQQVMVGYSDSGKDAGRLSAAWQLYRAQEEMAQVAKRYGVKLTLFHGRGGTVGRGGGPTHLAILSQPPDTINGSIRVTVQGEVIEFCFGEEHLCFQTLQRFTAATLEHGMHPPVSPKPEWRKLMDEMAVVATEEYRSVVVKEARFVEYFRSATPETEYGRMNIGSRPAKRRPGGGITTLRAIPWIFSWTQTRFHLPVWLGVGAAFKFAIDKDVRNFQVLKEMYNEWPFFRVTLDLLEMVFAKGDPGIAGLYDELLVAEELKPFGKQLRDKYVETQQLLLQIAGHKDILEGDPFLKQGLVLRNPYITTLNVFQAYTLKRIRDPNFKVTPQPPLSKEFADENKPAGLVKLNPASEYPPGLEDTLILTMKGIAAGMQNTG

ZmPEPC-C4 [2] = biological target: T1, ZmPEPC-C4; assay: quenching of ANS-enzyme fluorescence at […] nm, Hill-type fit; type: binding
ZmPEPC-C4 [3] = biological target: T1, ZmPEPC-C4; assay: ANS fluorescence titration, emission […] nm; type: binding
ZmPEPC-C4 [4] = biological target: T1, ZmPEPC-C4; assay: near-UV CD and limited trypsin proteolysis; type: binding; settings: 15 mM G6P, pH 7.3; allosteric activator; no effect on ANS fluorescence

`O=C(O)C[C@H](O)C(=O)O` [malate] showed an inhibition at 10000 µM (ZmPEPC-C4 [1]) of 84.5 ± 0.2% and a Kd (ZmPEPC-C4 [2]) of 360 ± 70 µM.

Work on `O=S(=O)(O)c1cccc2cccc(Nc3ccccc3)c12` [ANS] yielded a Kd (ZmPEPC-C4 [3]) of 14.5 ± 1.5 µM.

In the case of `O=P(O)(O)OC[C@H]1OC(O)[C@H](O)[C@@H](O)[C@@H]1O` (stereo partly shown) [G6P], the “near-UV CD and limited trypsin proteolysis” value (ZmPEPC-C4 [4]) is reported as “differences were also observed in the CD spectra of the E-PEP, E-G6P, and E-Gly complexes”.
